From patent publication US12559474B2, “Triazine derivatives having virus replication inhibitory activity and pharmaceutical composition comprising the same” (priority 2021, dated 2026)
Where two headings read alike, the source gives them in different places.

Assays:
SARS-CoV-2 3CL protease = SARS-CoV-2 3CL protease (Severe acute respiratory syndrome coronavirus 2, UniProt P0DTD1); test: biochemical; details: 50% SARS-CoV-2 3CL protease inhibitory concentration, read-out: IC50
SARS-CoV-2 = test: microbe, parasite or virus in culture; format: cell-based; details: Severe acute respiratory syndrome coronavirus 2, VeroE6/TMPRSS2, 72 h, 50% SARS-CoV-2 infected cell death inhibitory concentration, VeroE6/TMPRSS2 cells, 3 days culture

SMILES	IC50 (SARS-CoV-2 3CL protease; RapidFire MS) [nM]	EC50 (SARS-CoV-2; CellTiter-Glo 2.0) [nM]	IC50 (SARS-CoV-2 3CL protease; given as class symbols) [nM]	EC50 (SARS-CoV-2; class symbols) [nM]
Cc1cncc(-n2c(=O)nc(Nc3cc(-c4ccc[nH]c4=O)sc3C)n(Cc3cc(F)c(F)c(F)c3)c2=O)c1 [II-0289]	240	16000	–	–
Cn1cc2cc(Nc3nc(=O)n(Cc4ncccn4)c(=O)n3Cc3cc(F)c(F)c(Cl)c3)c(Cl)cc2n1 [II-0296]	–	–	< 100	< 1000
O=c1[nH]cccc1Cn1c(=O)nc(NC23CC(Nc4ncc(F)cn4)(C2)C3)n(Cc2cc(F)c(F)c(F)c2)c1=O [II-0460]	22	19000	–	–
Cn1cnc(Cn2c(=O)nc(Nc3cc4c(cc3Cl)OCC4)n(Cc3cc(F)c(F)c(F)c3F)c2=O)n1 [II-0017]	–	–	< 100	< 1000
O=c1nc(Nc2cc3cn(CCN4CCOCC4)nc3cc2Cl)n(Cc2cc(F)c(F)cc2F)c(=O)n1-c1cncc2ccccc12 [II-0078]	–	–	< 100	< 1000
Cc1cncc(-n2c(=O)nc(Nc3cc4cn(CC(F)(F)F)nc4cc3Cl)n(Cc3cc(F)c(F)c(F)c3)c2=O)c1 [II-0564]	–	–	< 100	< 1000
Cn1cnc(Cn2c(=O)nc(Nc3cc4cn(C)nc4cc3Cl)n(Cc3ccc(F)c(Br)c3)c2=O)n1 [II-0179]	–	–	< 100	1000 to 10000
COc1ccc(Nc2nc(=O)n(-c3cc(C)cnn3)c(=O)n2Cc2cc(F)c(F)c(F)c2)cc1 [II-0392]	1000	20800	–	–
Cc1cncc(-n2c(=O)nc(Nc3cc4cn(C)nc4cc3Cl)n(Cc3cc(C#N)ccc3N)c2=O)c1 [II-0585]	–	–	< 100	1000 to 10000
Cn1cnc(Cn2c(=O)nc(Nc3cc4cn(C5CC5)nc4cc3Cl)n(Cc3cc(F)c(F)cc3F)c2=O)n1 [II-0527]	–	–	< 100	< 1000
Cc1nc2cc(Cl)c(Nc3nc(=O)n(Cc4ccc[nH]c4=O)c(=O)n3Cc3cc(F)c(F)c(F)c3)cc2s1 [Compound I-0370]	–	–	< 100	1000 to 10000
Cn1cc2cc(Nc3nc(=O)n(-c4cncc(Cl)c4)c(=O)n3Cc3cc(F)c(F)c(C#N)c3)c(F)cc2n1 [II-0367]	–	–	< 100	< 1000
Cc1cncc(-n2c(=O)nc(Nc3cc4cn(C)nc4cc3Cl)n(Cc3cc(C#N)c(F)cc3CC(C)C)c2=O)c1 [II-0023]	–	–	< 100	< 1000
Cc1cncc(-n2c(=O)nc(Nc3cc4cn(C)nc4cc3Cl)n(Cc3cc(F)c(F)cc3OCC3CCC3)c2=O)c1 [II-0551]	–	–	< 100	< 1000
Cn1cc2cc(Nc3nc(=O)n(-c4cncc(Cl)c4)c(=O)n3Cc3cc(F)c(F)c(Cl)c3)ccc2n1 [II-0109]	40	798	–	–
Cn1cnc(Cn2c(=O)nc(Nc3cc4cn(C)nc4cc3Cl)n(Cc3ccc(F)cc3F)c2=O)n1 [II-0202]	–	–	< 100	1000 to 10000
COc1ccc(Nc2nc(=O)n(Cc3ccc(C)[nH]c3=O)c(=O)n2Cc2cc(F)c(F)c(F)c2)cc1 [Compound I-0358]	120	7450	100 to 1000	–
Cn1cc2cc(Nc3nc(=O)n(-c4cncc(C5CC5)c4)c(=O)n3Cc3ccc(F)c(C#N)c3)ccc2n1 [II-0388]	–	–	< 100	< 1000
Cc1cncc(-n2c(=O)nc(Nc3cc4c(cc3Cl)OC(C)C4)n(Cc3ccc(F)c(C#N)c3)c2=O)c1 (centres unmarked) [II-0114]	–	–	< 100	< 1000
Cc1nc2cc(Cn3c(=O)nc(Nc4ccc5c(c4)CCO5)n(Cc4cc(F)c(F)c(F)c4)c3=O)c(=O)[nH]c2s1 [II-0341]	–	–	< 100	1000 to 10000
N#Cc1cc(Cn2c(Nc3ccc4nc(NCC(F)F)sc4c3)nc(=O)n(-c3cncc(Cl)c3)c2=O)ccc1F [II-0129]	–	–	< 100	1000 to 10000
Cc1cncc(-n2c(=O)nc(Nc3cc4cn(C)nc4cc3Cl)n(Cc3cc(C#N)ccc3[N+](=O)[O-])c2=O)c1 [II-0580]	–	–	< 100	< 1000
Cn1cc2cc(Nc3nc(=O)n(-c4cncc(Cl)c4)c(=O)n3Cc3cc(Cl)c(F)cn3)c(Cl)cc2n1 [II-0592]	–	–	< 100	1000 to 10000
